US7807712B2, “Oxy substituted chalcones as antihyperglycemic and antidyslipidemic agents” (priority 2004, dated 2010)
Where two headings read alike, the source gives them in different places.

How the values were obtained:
[1] = system: triton WR-1339 induced hyperlipidemic rats; assay: Triton model, antidyslipidemic activity; format: in vivo, rat (Charles foster); conditions: Rattus norvegicus, 100 mg/kg oral
Experimental: Male Charles foster rats weighing 200-225 g were divided into control, hyperlipidemic and hyperlipidemic plus drug treated groups containing six animals in each group. Hyperlipidemia was induced by administration of triton WR-1339 (200 mg/kg i.p.). All animals were maintained on a special pellet diet and water ad libitum. Compounds and standard drug were macerated with 0.2% aqueous gum acacia suspension. The suspension was fed orally at the dose of 100 mg/kg simultaneously with triton in drug treated group. The animals of control group received the same amount of gum acacia by similar route of administration. At the end of the experiment, after 18 h, blood was withdrawn from retro orbital plexus and plasma was used for the assay of total cholesterol, phospholipid and triglycerides.
Cholesterol was estimated using the kit provided by Roche Diagnostics. Cholesterol esters are enzymatically hydrolyzed by cholesterol esterase (CE) to cholesterol and free fatty acids. Free cholesterol, including that originally present, is then oxidized by cholesterol oxidase (CO) to cholest-4-en-3-one and hydrogen peroxide. The hydrogen peroxide combines with hydroxy benzoic acid (HBA) and 4-aminoantipyrine (4AAA) in the presence of peroxidase (POD) to form a chromophore (quinoneimine dye), which may be quantitated at 500-505 nm. The intensity of red colour formed is directly proportional to the concentration of total cholesterol in the specimen and measured spectrophotometrically (Searcy, C. L. Diagnostic Biochemistry, 1969, McGraw Hill, New York; Ellefson, R. D.; Caraway, W. T. Fundamentals of clinical chemistry, 1976, Ed Tietz N W, 506-515.)
Triglycerides were estimated using the kit provided by Roche Diagnostics. Lipoprotein lipase hydrolyses triglycerides to yield glycerol and fatty acids. Glycerol kinase converts glycerol to glycerol-3-phosphate, which is oxidized by glycerol phosphate oxidase to dihydroxy acetone phosphate and hydrogen peroxide. In the presence of peroxidase, hydrogen peroxide oxidatively couples with 4-aminoantipyrine and 4-chloro phenol to produce red quinonimine dye. The intensity of red colour formed is directly proportional to the concentration of triglycerides in the specimen and is measured by photometrically (Wahlefeld, A. W.; Bergmeyer, H. U. Ed. Methods of enzymatic analysis, 2nd English edition, New York, N.Y., Academic press inc, 1831-1840.).
Serum (0.2 mL) and perchloric acid (1.0 mL) was digested at 180° C. for 1-1.5 h till the solution became colorless. The liberated inorganic phosphate (Pi) was measured by the method of Fiske and Subbarow (Fiske, C. H.; Subbarow, V. J. Biol. Chem. 1925, 66, 375.). 1 mL of 2.5% ammonium molybdate (prepared in 5 N sulphuric acid) and 0.5 mL reducing agent (4-amino naphthol sulphonic acid, 0.2%), sodium metabisulphite (2.4% w/v in distilled water) was added to the above tubes and mixed well. The reaction mixture was […] with 2.5 mL of triple distilled water and kept at 60° C. in water bath for 20 min. For standard, an appropriate amount of potassium dihydrogen phosphate dissolved in triple distilled water containing 2-10 μg phosphorus (Pi) was run simultaneously with the experiment tubes. The optical density of the blue colour was recorded at 620 nm against reagent blank. The values of Pi were converted into phospholipid by multiplying with 25 (a constant calibrated from Pi value of lecithin).

sucrose loaded rats = assay: Sucrose loaded rat model (SLM), antihyperglycemic activity; format: in vivo, rat (Charles Foster/Wistar); conditions: Rattus norvegicus, 2 h; 100 mg/kg oral; sucrose load 10.0 g/kg; AUC vs control, 30-120 min; read-out: % Fall in blood glucose levels SLM
Experimental: Male albino rats of Charles Foster/Wistar strain of average body weight 160±20 g were selected for this study. The blood glucose level of each animal was checked by glucometer using glucostrips (Boehringer Mannheim) after 16 h starvation. Animals showing blood glucose levels between 3.33 to 4.44 mM (60 to 80 mg/dl) were divided into groups of five to six animals in each. Animals of experimental group were administered suspension of the desired synthetic compound orally (made in 1.0% gum acacia) at a dose of 100-mg/kg-body weight. Animals of control group were given an equal amount of 1.0% gum acacia. A sucrose load (10.0 g/kg) was given to each animal orally exactly after 30 min post administration of the test sample/vehicle. Blood glucose profile of each rat was again determined at 30, 60, 90 and 120 min post administration of sucrose by glucometer. Food but not water was withheld from the cages during the course of experimentation. Quantitative glucose tolerance of each animal was calculated by Area Under Curve (AUC) method (Prism Software). Comparing the AUC of experimental and control groups determined the percentage antihyperglycemic activity. Statistical comparison was made by Dunnett's test.

[2] = system: streptozotocin-induced diabetic rats; assay: Sucrose-challenged streptozotocin-induced diabetic rats (STZ-S), antihyperglycemic activity; format: in vivo, rat (Sprague Dawley); conditions: 100 mg/kg oral, sucrose load 2.5 g/kg, AUC vs control
Experimental: Male albino rats of Sprague Dawley strain of body weight […] were selected for this study. Streptozotocin (Sigma, USA) was dissolved in 100 mM citrate buffer pH 4.5 and calculated amount of the fresh solution was injected to overnight fasted rats (45 mg/kg) intraperitoneally. Blood glucose level was checked 48 h later by glucostrips and animals showing blood glucose values between 144 to 270 mg/dl (8 to 15 mM) were included in the experiment and termed diabetic. The diabetic animals were divided into groups consisting of five to six animals in each group. Animals of experimental groups were administered suspension of the desired test samples orally (made in 1.0% gum acacia) at a dose of 100-mg/kg-body weight. Animals of control group were given an equal amount of 1.0% gum acacia. A sucrose load of 2.5-g/kg body weight was given after 30 minutes of compound administration. After 30 minutes of post sucrose load blood glucose level was again checked by glucostrips at 30, 60, 90, 120, 180, 240, 300 min and at 24 h, respectively. Animals not found diabetic after 24 hours post treatment of the test sample were not considered and omitted from the calculations and termed as non-responders. […] Food but not water was withheld from the cages during the experimentation. Comparing the AUC of experimental and control groups determined the percent antihyperglycemic activity. Statistical comparison between groups was made by Student's ‘t’ test.

[3] = plasma phospholipid after 18 h, read-out: % Fall in lipid levels (Triton model) PL
[4] = plasma total cholesterol after 18 h, read-out: % Fall in lipid levels (Triton model) TC
[5] = plasma triglycerides after 18 h, read-out: % Fall in lipid levels (Triton model) TG

CCCCNCC(O)COc1ccc(C(=O)/C=C/c2ccc(OC)cc2)cc1 (stereo not shown) [Compound 27, 4′-[3-n-Butylamino-2-hydroxy-propoxy]-4-methoxy-chalcone]
melting point: 163 to 164 °C
inhibition in vivo at 100 mg/kg [1, 3]: 22%
inhibition in vivo at 100 mg/kg [1, 4]: 25%
inhibition in vivo at 100 mg/kg [1, 5]: 20%
inhibition in vivo at 100 mg/kg (sucrose loaded rats): 38%
% Fall in blood glucose levels STZ-S 5 h [2]: NIL
% Fall in blood glucose levels STZ-S 24 h [2]: NIL

COc1ccc(/C=C/C(=O)c2cccc(OCC(O)CNC(C)C)c2)cc1 (stereo not shown) [Compound 29, 3′-[2-Hydroxy-3-iso-propylamino-propoxy]-4-methoxy-chalcone]
melting point: 102 to 103 °C
inhibition in vivo at 100 mg/kg [1, 3]: 27%
inhibition in vivo at 100 mg/kg [1, 4]: 33%
inhibition in vivo at 100 mg/kg [1, 5]: 27%
inhibition in vivo at 100 mg/kg (sucrose loaded rats): 6.85%
% Fall in blood glucose levels STZ-S 5 h [2]: NIL
% Fall in blood glucose levels STZ-S 24 h [2]: NIL

COc1ccc(/C=C/C(=O)c2cccc(OCC(O)CNC(C)(C)C)c2)cc1 (stereo not shown) [Compound 30, 3′-[3-tert-Butylamino-2-hydroxy-propoxy]-4-methoxy-chalcone]
melting point: 83 to 84 °C
inhibition in vivo at 100 mg/kg [1, 3]: 25%
inhibition in vivo at 100 mg/kg [1, 4]: 27%
inhibition in vivo at 100 mg/kg [1, 5]: 30%
inhibition in vivo at 100 mg/kg (sucrose loaded rats): 20%
% Fall in blood glucose levels STZ-S 24 h [2]: 11.3%

CCCCNCC(O)COc1ccccc1C(=O)/C=C/c1ccc(OC)cc1 (stereo not shown) [Compound 31, 2′-[3-n-Butylamino-2-hydroxy-propoxy]-4-methoxy-chalcone]
melting point: 106 to 107 °C
inhibition in vivo at 100 mg/kg [1, 3]: 3%
inhibition in vivo at 100 mg/kg (sucrose loaded rats): 33.1%
% Fall in blood glucose levels STZ-S 5 h [2]: NIL
% Fall in blood glucose levels STZ-S 24 h [2]: NIL

COc1ccc(/C=C/C(=O)c2ccccc2OCC(O)CNC(C)C)cc1 (stereo not shown) [Compound 32, 2′-[2-Hydroxy-3-iso-propylamino-propoxy]-4-methoxy-chalcone]
melting point: 88 to 89 °C
inhibition in vivo at 100 mg/kg [1, 3]: 15%
inhibition in vivo at 100 mg/kg [1, 4]: 22%
inhibition in vivo at 100 mg/kg [1, 5]: 29%
inhibition in vivo at 100 mg/kg (sucrose loaded rats): 47%
% Fall in blood glucose levels STZ-S 24 h [2]: 2.77%

CC(C)CNCC(O)COc1ccc(C(=O)/C=C/c2ccc3c(c2)OCO3)cc1 (stereo not shown) [Compound 35, 4′-[3-iso-Butylamino-2-hydroxy-propoxy]-3,4-methylenedioxy-chalcone]
melting point: 122 to 123 °C
inhibition in vivo at 100 mg/kg [1, 3]: 9%
inhibition in vivo at 100 mg/kg [1, 4]: 13%
inhibition in vivo at 100 mg/kg [1, 5]: 13%
inhibition in vivo at 100 mg/kg (sucrose loaded rats): 23.8%
% Fall in blood glucose levels STZ-S 24 h [2]: 11.6%
